The assay concerns the target T1, GST-tagged GDP-loaded KRAS G12V (amino acids 1-169) (Homo sapiens, UniProt P01116, G12V).
T1 construct: GST-tagged GDP-loaded KRAS G12V (amino acids 1-169); made in house; host or cells: E. coli
The experiment in a line: KRAS G12V probe displacement assay (TR-FRET). Format: binding. As to conditions: displacement of biotinylated probe 2 from GDP-loaded KRAS G12V. How it is done:
KRAS WT and KRAS G12V Probe Displacement Assay
This assay was used to identify compounds which bind to GDP-loaded KRAS protein and are able to displace a biotinylated probe occupying the KRAS binding site. GST-tagged GDP-loaded WT KRAS (amino acids 1-169) and GST-tagged GDP-loaded KRAS G12V (amino acids 1-169) were expressed in E. coli and purified in house. All protein and reaction solutions were prepared in assay buffer containing 50 mM HEPES pH7.5, 50 mM NaCl, 1 mM MgCl2, 1 mM TCEP, 0.01% BSA, and 0.008% Brij-35. Purified WT KRAS (3 nM final concentration) or KRAS G12V protein (2 nM final concentration) was incubated with a 3-fold serially diluted compound in the assay plate (384 well microplate, black, Corning). Plates are incubated at 24° C. for 1 hr. Following the incubation, biotinylated probe 1 (60 nM final assay concentration) for WT KRAS and biotinylated probe 2 (2.5 nM final assay concentration) for KRAS G12V was added to the assay plate, respectively. After 1 hr incubation at 24° C., Mab Anti-GST-Tb cryptate (Cisbio) and Streptavidin-XL665 (Cisbio) were added and further incubated at 24° C. for another 1 hr. The TR-FRET signals (ex337 nm, em665 nm/620 nm) were read on BMG PHERAstar FSX instrument. The inhibition percentage of KRAS protein binding with biotinylated probe in presence of increasing concentrations of compounds was calculated based on the ratio of fluorescence at 665 nm to that at 620 nm. The IC50 value of each compound was calculated from fitting the data to the four-parameter logistic model by Dotmatics.

Some results are limits rather than exact numbers.

T1 sequence (P01116 1-169 isoform P01116-2 G12V): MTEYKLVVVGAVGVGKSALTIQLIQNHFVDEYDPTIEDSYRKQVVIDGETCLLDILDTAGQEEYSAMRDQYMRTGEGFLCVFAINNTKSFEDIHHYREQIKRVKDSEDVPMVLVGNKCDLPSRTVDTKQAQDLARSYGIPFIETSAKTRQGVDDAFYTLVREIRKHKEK

The compound `Nc1nc2c(-c3c(C(F)(F)F)cc4c(N5CCC(F)(F)C5)nc(OC[C@@]56CCCN5C[C@H](F)C6)nc4c3F)ccc(F)c2s1` [Example 53, 4-(4-(3,3-difluoropyrrolidin-1-yl)-8-fluoro-2-(((2R,7aS)-2-fluorotetrahydro-1H-pyrrolizin-7a(5H)-yl)methoxy)-6-(trifluoromethyl)quinazolin-7-yl)-7-fluorobenzo[d]thiazol-2-amine] showed an IC50 of 12 nM.
For `Nc1cc(Cl)c(C(F)(F)F)c(-c2ncc3c(N4CCO[C@H](CO)C4)nc(OC[C@@]45CCCN4C[C@H](F)C5)nc3c2F)c1` [Example 120, ((2S)-4-(7-(5-amino-3-chloro-2-(trifluoromethyl)phenyl)-8-fluoro-2-((2-fluorotetrahydro-1H-pyrrolizin-7a(5H)-yl)methoxy)pyrido[4,3-d]pyrimidin-4-yl)morpholin-2-yl)methanol], the IC50 is 6.6 nM.
As to `Nc1nc2c(-c3c(C(F)(F)F)cc4c(N5CCCCCC5)nc(OC[C@@]56CCCN5C[C@H](F)C6)nc4c3F)ccc(F)c2s1` [Example 81, 4-(4-(azepan-1-yl)-8-fluoro-2-(((2R,7aS)-2-fluorotetrahydro-1H-pyrrolizin-7a(5H)-yl)methoxy)-6-(trifluoromethyl)quinazolin-7-yl)-7-fluorobenzo[d]thiazol-2-amine], the IC50 came out at 4.9 nM.
Take `Nc1cc(Cl)c(C(F)(F)F)c(-c2ncc3c(N4CCC5CC5(O)C4)nc(OC[C@@]45CCCN4C[C@H](F)C5)nc3c2F)c1` (stereo partly drawn) [Example 131, 3-(7-(5-amino-3-chloro-2-(trifluoromethyl)phenyl)-8-fluoro-2-(((2R,7aS)-2-fluorotetrahydro-1H-pyrrolizin-7a(5H)-yl)methoxy)pyrido[4,3-d]pyrimidin-4-yl)-3-azabicyclo[4.1.0]heptan-1-ol]: the IC50 is 23 nM.
Compound `Nc1nc2c(-c3c(C(F)(F)F)cc4c(N[C@H]5C[C@@H](O)C5)nc(OC[C@@]56CCCN5C[C@H](F)C6)nc4c3F)ccc(F)c2s1` [Example 11, cis-3-((7-(2-amino-7-fluorobenzo[d]thiazol-4-yl)-8-fluoro-2-(((2R,7aS)-2-fluorotetrahydro-1H-pyrrolizin-7a(5H)-yl)methoxy)-6-(trifluoromethyl)quinazolin-4-yl)amino)cyclobutan-1-ol] had an IC50 of 4.4 nM.
Consider `Nc1nc2c(-c3c(C(F)(F)F)cc4c(N5CC[C@@H](F)C5)nc(OC[C@@]56CCCN5C[C@H](F)C6)nc4c3F)ccc(F)c2s1` [Example 51, 7-fluoro-4-(8-fluoro-4-((R)-3-fluoropyrrolidin-1-yl)-2-(((2R,7aS)-2-fluorotetrahydro-1H-pyrrolizin-7a(5H)-yl)methoxy)-6-(trifluoromethyl)quinazolin-7-yl)benzo[d]thiazol-2-amine], for which the IC50 worked out at 11 nM.
Regarding `Cc1nc(N)nc(-c2c(Cl)cc3c(N4CCC(C#N)CC4)nc(OC[C@@]45CCCN4C[C@H](F)C5)nc3c2F)c1C(F)(F)F` [Example 107, 1-(7-(2-amino-6-methyl-5-(trifluoromethyl)pyrimidin-4-yl)-6-chloro-8-fluoro-2-(((2R,7aS)-2-fluorotetrahydro-1H-pyrrolizin-7a(5H)-yl)methoxy)quinazolin-4-yl)piperidine-4-carbonitrile], the IC50 was 73 nM.
As to `N#CCN1CC2(CCN(c3nc(OC[C@@]45CCCN4C[C@H](F)C5)nc4c(F)c(-c5ccc(F)c6sc(N)nc56)c(C(F)(F)F)cc34)CC2)OC1=O` [Example 89, 2-(8-(7-(2-amino-7-fluorobenzo[d]thiazol-4-yl)-8-fluoro-2-(((2R,7aS)-2-fluorotetrahydro-1H-pyrrolizin-7a(5H)-yl)methoxy)-6-(trifluoromethyl)quinazolin-4-yl)-2-oxo-1-oxa-3,8-diazaspiro[4.5]decan-3-yl)acetonitrile], the IC50 came out at 2.4 nM.
For `Nc1nc2c(-c3c(C(F)(F)F)cc4c(N5CCCC5)nc(OC[C@@]56CCCN5C[C@H](F)C6)nc4c3F)ccc(F)c2s1` [Example 50, 7-fluoro-4-(8-fluoro-2-(((2R,7aS)-2-fluorotetrahydro-1H-pyrrolizin-7a(5H)-yl)methoxy)-4-(pyrrolidin-1-yl)-6-(trifluoromethyl)quinazolin-7-yl)benzo[d]thiazol-2-amine] the value was 13 nM.
`N#C[C@H]1C[C@H](Nc2nc(OC[C@@]34CCCN3C[C@H](F)C4)nc3c(F)c(-c4ccc(F)c5sc(N)nc45)c(C(F)(F)F)cc23)C1` [Example 19, (trans)-3-((7-(2-amino-7-fluorobenzo[d]thiazol-4-yl)-8-fluoro-2-(((2R,7aS)-2-fluorotetrahydro-1H-pyrrolizin-7a(5H)-yl)methoxy)-6-(trifluoromethyl)quinazolin-4-yl)amino)cyclobutane-1-carbonitrile] yielded an IC50 of 9.9 nM.
In turn, `Nc1nc2c(-c3c(C(F)(F)F)cc4c(NC5CC5c5ccccc5)nc(OC[C@@]56CCCN5C[C@H](F)C6)nc4c3F)ccc(F)c2s1` (relative stereo) [Example 5, 7-fluoro-4-(8-fluoro-2-(((2R,7aS)-2-fluorotetrahydro-1H-pyrrolizin-7a(5H)-yl)methoxy)-4-(((trans)-2-phenylcyclopropyl)amino)-6-(trifluoromethyl)quinazolin-7-yl)benzo[d]thiazol-2-amine] displayed an IC50 of 45 nM.
In the case of `CC(=O)N1C[C@@H]2[C@H](C1)[C@H]2Nc1nc(OC[C@@]23CCCN2C[C@H](F)C3)nc2c(F)c(-c3ccc(F)c4sc(N)nc34)c(C(F)(F)F)cc12` [Example 9, 1-((1R,5S,6s)-6-((7-(2-amino-7-fluorobenzo[d]thiazol-4-yl)-8-fluoro-2-(((2R,7aS)-2-fluorotetrahydro-1H-pyrrolizin-7a(5H)-yl)methoxy)-6-(trifluoromethyl)quinazolin-4-yl)amino)-3-azabicyclo[3.1.0]hexan-3-yl)ethan-1-one], the IC50 amounted to 2.5 nM.
As to `COc1cc(N)nc(-c2c(Cl)cc3c(N4CCC(C#N)CC4)nc(OC[C@@]45CCCN4C[C@H](F)C5)nc3c2F)c1C(F)(F)F` [Example 108, 1-(7-(6-amino-4-methoxy-3-(trifluoromethyl)pyridin-2-yl)-6-chloro-8-fluoro-2-(((2R,7aS)-2-fluorotetrahydro-1H-pyrrolizin-7a(5H)-yl)methoxy)quinazolin-4-yl)piperidine-4-carbonitrile], the IC50 was above 1000 nM.
`Nc1nc2c(-c3c(C(F)(F)F)cc4c(N[C@H]5C[C@@H](F)C5)nc(OC[C@@]56CCCN5C[C@H](F)C6)nc4c3F)ccc(F)c2s1` [Example 15, 7-fluoro-4-(8-fluoro-4-(((cis)-3-fluorocyclobutyl)amino)-2-(((2R,7aS)-2-fluorotetrahydro-1H-pyrrolizin-7a(5H)-yl)methoxy)-6-(trifluoromethyl)quinazolin-7-yl)benzo[d]thiazol-2-amine] gave an IC50 of 17 nM.
As to `N#CC1CCCCN(c2nc(OC[C@@]34CCCN3C[C@H](F)C4)nc3c(F)c(-c4ccc(F)c5sc(N)nc45)c(C(F)(F)F)cc23)C1` (stereo partly drawn) [Example 83, 1-(7-(2-amino-7-fluorobenzo[d]thiazol-4-yl)-8-fluoro-2-(((2R,7aS)-2-fluorotetrahydro-1H-pyrrolizin-7a(5H)-yl)methoxy)-6-(trifluoromethyl)quinazolin-4-yl)azepane-3-carbonitrile], the 50% inhibitory concentration (IC50) came out at 6.4 nM.
